US9072742B2, “Method of predicting a predisposition to QT prolongation” (Vanda Pharmaceuticals, Inc., priority 2009, dated 2015)
“And” between values parts separate entries of the source, which are not always exact repeats. Equal values may be shown once.

System: individuals genotyped at the rs1083338 locus (BAI3 gene)
Assay: QT prolongation (change in QTc, Fridericia) after oral iloperidone for two weeks, by rs1083338 genotype
Assay type: in vivo, human
Settings: for Odds Ratio: GG vs non-GG at rs1083338, iloperidone 24 mg/day; for High QT +test (number of individuals) / Low QT +test (number of individuals) / High QT −test (number of individuals) / Low QT −test (number of individuals): iloperidone 24 mg/day B.I.D. oral; for High QT +test (number of individuals) / Low QT +test (number of individuals): GG genotype at rs1083338; for High QT −test (number of individuals) / Low QT −test (number of individuals): genotype other than GG at rs1083338
Experimental: Since the QT interval changes with changes in heart rate, the QT interval is often measured as a corrected QT (QTc) interval. Any number of formulas may be employed to calculate the QTc, including, for example, the Fridericia formula (QTcF), the Bazett formula (QTcB), and the Rautaharju formula (QTp), among others. In the studies described herein, QT was calculated using the Fridericia formula. However, the present invention includes the use of any such formula or method for calculating a QTc or an uncorrected QT. Using the genotypes at the SNP loci above, it is possible, with a high degree of certainty, to predict an individual's predisposition to QT prolongation.

## COc1cc(C(C)=O)ccc1OCCCN1CCC(c2noc3cc(F)ccc23)CC1 [iloperidone, 1-[4-[3-[4-(6-fluoro-1,2-benzisoxazol-3-yl)-1-piperidinyl]propoxy]-3-methoxyphenl]ethanone]
Change threshold QT > 5 msec
  Odds Ratio: 4.21
  High QT +test (number of individuals): 39
  Low QT +test (number of individuals): seven and 7
  High QT −test (number of individuals): 78
  Low QT −test (number of individuals): 59
Change threshold QT > 15 msec
  Odds Ratio: 3.61
  High QT +test (number of individuals): 29
  Low QT +test (number of individuals): 17
  High QT −test (number of individuals): 44
  Low QT −test (number of individuals): 93
Change threshold QT > 30 msec
  Odds Ratio: 3.84
  High QT +test (number of individuals): 14
  Low QT +test (number of individuals): 32
  High QT −test (number of individuals): 14
  Low QT −test (number of individuals): 123
